pIC50: −log10 of the molar value. Read-outs that look alike come from different tables or passages of the source.
What was measured:
KDR = target: T1, KDR (Homo sapiens, UniProt P35968); test: (125I)-VEGF binding inhibition on NIH3T3 cells in which KDR was forced to be expressed; conditions: KDR-expressing NIH3T3 cells, (125I)-VEGF 25 pM, 90 minutes, read-out: IC50 (concentration of 50% binding inhibition)
T1 construct: expressed in transfected cells; host or cells: NIH3T3
Experimental: According to the method described in a document (Cell Growth & Differentiation, vol. 7, pp. 213-221, 1996), the following tests were carried out.
NIH3T3 cells in which Flt-1 was forced to be expressed were seeded on a 24-well collagen-coated plate (7×10^4/well), and were cultured in Dulbecco's modified Eagle's medium (DMEM) including 10% bovine serum and 200 μg/ml of Geneticin G418, for 24 hours at 37° C. under an atmosphere of 5% carbon dioxide gas. The cells were preincubated in Buffer A (including 10 mM HEPES (N-2-hydroxyethylpiperazine-N′-2-ethanesulfonic acid) and 0.1% BSA (bovine serum albumin) in DMEM), for 30 minutes at 4° C. Subsequently, the medium was replaced with Buffer B (including 10 mM HEPES and 0.5% BSA in DMEM). A test solution prepared by dissolving each of the test compounds shown in Table 19 in dimethylsulfoxide and subsequently diluting the solution into a prescribed concentration with Buffer B, and (^125I)-VEGF (the final concentration was set to 25 pM) were added thereto. Binding reaction was carried out for 90 minutes at […]. After completion of the reaction, the cells were washed three times with ice-cooled Buffer A. Subsequently, 0.5 ml of 0.5M NaOH were added to each well, and the cells were lysed in 30 minutes at room temperature. The radioactivity of the lysed cells in each well was measured by means of a gamma counter, and a total binding quantity of (^125I)-VEGF was calculated. Nonspecific binding quantity of (^125I)-VEGF was measured by competition assay in the presence of 10 nM non-labeled VEGF. The specific binding quantity of (^125I)-VEGF was calculated from the difference between the total binding quantity of (^125I)-VEGF and nonspecific binding quantity of (^125I)-VEGF.
The binding inhibition index of the test compounds was calculated by the following equation. [formula]
From this value, a concentration of 50% binding inhibition (IC50) of the test compound was calculated.
Test on each of the test compounds shown in Table 20 and Table 21 was carried out employing NIH3T3 cells in which KDR was forced to be expressed, in the same manner as described in Experimental Example 1 described above.

T1 sequence (P35968 20-1356): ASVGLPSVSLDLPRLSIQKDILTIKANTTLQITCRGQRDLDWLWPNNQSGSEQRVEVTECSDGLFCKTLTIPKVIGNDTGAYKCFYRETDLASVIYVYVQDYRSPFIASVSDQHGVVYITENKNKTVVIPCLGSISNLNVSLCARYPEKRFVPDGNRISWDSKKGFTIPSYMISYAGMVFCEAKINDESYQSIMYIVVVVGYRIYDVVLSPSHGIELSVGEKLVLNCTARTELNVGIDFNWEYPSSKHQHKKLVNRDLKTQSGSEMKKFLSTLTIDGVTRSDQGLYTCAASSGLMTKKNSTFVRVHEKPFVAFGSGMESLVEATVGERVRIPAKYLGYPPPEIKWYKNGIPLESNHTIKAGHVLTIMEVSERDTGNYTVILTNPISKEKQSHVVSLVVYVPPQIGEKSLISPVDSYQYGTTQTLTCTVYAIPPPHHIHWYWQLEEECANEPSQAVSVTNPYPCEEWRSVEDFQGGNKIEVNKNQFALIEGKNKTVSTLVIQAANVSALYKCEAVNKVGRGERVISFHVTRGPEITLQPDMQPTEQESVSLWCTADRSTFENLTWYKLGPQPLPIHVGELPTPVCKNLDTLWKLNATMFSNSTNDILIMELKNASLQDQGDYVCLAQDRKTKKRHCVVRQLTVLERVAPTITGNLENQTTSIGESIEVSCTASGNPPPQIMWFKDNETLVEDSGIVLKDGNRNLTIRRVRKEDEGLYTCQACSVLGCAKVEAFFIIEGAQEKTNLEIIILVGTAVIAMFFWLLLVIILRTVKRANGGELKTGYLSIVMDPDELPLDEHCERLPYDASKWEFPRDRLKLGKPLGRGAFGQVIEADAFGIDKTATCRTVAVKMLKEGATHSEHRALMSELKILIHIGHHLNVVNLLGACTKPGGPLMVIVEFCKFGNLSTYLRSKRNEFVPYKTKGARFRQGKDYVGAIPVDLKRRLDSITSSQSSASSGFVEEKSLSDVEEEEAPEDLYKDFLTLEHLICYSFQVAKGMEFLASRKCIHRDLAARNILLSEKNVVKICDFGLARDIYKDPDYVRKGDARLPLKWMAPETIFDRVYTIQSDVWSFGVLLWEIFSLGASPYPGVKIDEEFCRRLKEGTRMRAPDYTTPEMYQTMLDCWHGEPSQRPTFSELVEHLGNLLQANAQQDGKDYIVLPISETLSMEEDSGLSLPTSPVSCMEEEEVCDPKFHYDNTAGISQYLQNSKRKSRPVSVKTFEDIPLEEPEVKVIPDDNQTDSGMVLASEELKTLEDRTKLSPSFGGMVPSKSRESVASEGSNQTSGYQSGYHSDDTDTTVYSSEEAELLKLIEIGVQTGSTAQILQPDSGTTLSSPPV

SMILES | melting point [°C] | pIC50 (KDR; Table 20) | pIC50 (KDR; Table 21)
CCCCCCCCCCCCCCCCCCOc1ccc(CCC(=O)N(C)c2ccc(Oc3ccc(C(=O)OC)cc3)c(C(=O)OC)c2)cc1 [Compound 22] | 60 to 62 | – | –
CCCCCCCCCCCCCCCCCCOc1ccc(CCC(=O)Nc2ccc(Oc3ccccc3C(=O)O)c(C(=O)O)c2)cc1 [Compound 29] | 184 to 186 | 5.92 | –
CCCCCCCCCCCCCCCCCCOc1ccc(CCC(=O)Nc2ccc(Oc3ccc(CC(=O)O)cc3)c(C(=O)O)c2)cc1 [Compound 31] | 170 to 173 | 5.91 | –
CCCCCCCCCCCCCCCCCCOc1ccc(CCC(=O)Nc2ccc(Oc3cccc(CC(=O)O)c3)c(C(=O)O)c2)cc1 [Compound 32] | 163 to 167 | 6.03 | –
CCCCCCCCCCCCCCCCCCOc1ccc(CCC(=O)Nc2ccc(Oc3ccc(CCC(=O)O)cc3)c(C(=O)O)c2)cc1 [Compound 33] | 156 to 160 | 6.59 | –
CCCCCCCCCCCCCCCCCCOc1ccc(CCC(=O)Nc2ccc(Oc3ccc(/C=C/C(=O)O)cc3)c(C(=O)O)c2)cc1 [Compound 34] | 200 to 208 | 6.47 | –
CCCCCCCCCCCCCCCCCCOc1ccc(CCC(=O)Nc2ccc(Oc3ccc4cc(C(=O)O)ccc4c3)c(C(=O)O)c2)cc1 [Compound 35] | 215 to 225 | 6.70 | –
CCCCCCCCCCCCCCCCCCOc1ccc(CCC(=O)Nc2cc(C(=O)O)ccc2Oc2cccc(C(=O)O)c2)cc1 [Compound 36] | 212 to 216 | 5.90 | –
CCCCCCCCCCCCCCCCCCOc1ccc(CCC(=O)Nc2cc(C(=O)O)ccc2Oc2ccc3cc(C(=O)O)ccc3c2)cc1 [Compound 38] | 214 to 219 | 6.15 | –
CCCCCCCCCCCCCCCCCCOc1ccc(CCC(=O)Nc2ccc(Sc3ccc(C(=O)O)cc3)c(C(=O)O)c2)cc1 [Compound 41] | 198 to 203 | 6.43 | –
CCCCCCCCCCCCCCCCCCOc1ccc(CCC(=O)Nc2ccc(Sc3cccc(C(=O)O)c3)c(C(=O)O)c2)cc1 [Compound 42] | 194 to 198 | 6.35 | –
CCCCCCCCCCCCCCCCCCOc1ccc(CCC(=O)Nc2cc(C(=O)O)ccc2Sc2cccc(C(=O)O)c2)cc1 [Compound 43] | 246 to 248 | 6.18 | –
CCCCCCCCCCCCCCCCCCOc1ccc(CCC(=O)Nc2ccc(Sc3ccc(C(=O)O)cn3)c(C(=O)O)c2)cc1 [Compound 44] | 221 to 223 | 6.04 | –
CCCCCCCCCCCCCCCCCCOc1ccc(CCC(=O)Nc2ccc(Nc3ccc(C(=O)O)cc3)c(C(=O)O)c2)cc1 [Compound 45] | 230 to 235 | 6.12 | –
CCCCCCCCCCCCCCCCCCOc1ccc(CCC(=O)Nc2ccc(Nc3cccc(C(=O)O)c3)c(C(=O)O)c2)cc1 [Compound 46] | 235 to 240 | 6.40 | –
CCCCCCCCCCCCCCCCCCOc1ccc(CCC(=O)Nc2ccc(Nc3ccccc3C(=O)O)c(C(=O)O)c2)cc1 [Compound 47] | 247 to 252 | 6.03 | –
CCCCCCCCCCCCCCCCCCOc1ccc(CCC(=O)N(C)c2ccc(SC)c(C(=O)OC)c2)cc1 [Compound 90] | 65.5 to 66.5 | – | –
CCCCCCCCCCCCCCCCCCOc1ccc(CC(=O)N(C)c2ccc(SC)c(C(=O)OC)c2)cc1 [Compound 91] | 60 to 69 | – | –
CCCCCCCCCCCCCCCCCCOc1ccc(CCC(=O)N(CC(=O)O)c2ccc(SC)c(C(=O)OC)c2)cc1 [Compound 102] | 102 to 106 | – | –
CCCCCCCCCCNC(=O)[C@H](CC(=O)O)NC(=O)CCCOc1ccc(CCC(=O)Nc2ccc(SC)c(C(=O)OC)c2)cc1 [Compound 105] | 165 to 167 | – | –
CCCCCCCCCCCCCCCCCCOc1ccc(CCC(=O)Nc2ccc([S+](C)[O-])c(C(=O)OC)c2)cc1 (stereo not drawn) [Compound 106] | 65 to 67 | – | –
CCCCCCCCCCCCCCCCCCOc1ccc(CC(=O)N(C)c2ccc(SCCO)c(C(=O)OC)c2)cc1 [Compound 109] | 92.5 to 94 | – | –
CCCCCCCCCCCCCCCCCCOc1ccc(CCC(=O)Nc2ccc(SC)c(C(=O)O)c2)cc1 [Compound 115] | 185 to 194 | – | 6.82
CCCCCCCCCCCCCCCCCCOc1ccc(CC(=O)Nc2ccc(SC)c(C(=O)O)c2)cc1 [Compound 116] | 200 to 204 | – | 6.80

SMILES | melting point [°C] | pIC50 (KDR; Table 20) | pIC50 (KDR; Table 21)
CCCCCCCCCCCCCCCCCCCCOc1ccc(CCC(=O)Nc2ccc(SC)c(C(=O)O)c2)cc1 [Compound 117] | 211 to 213 | – | 6.49
CCCCCCCCCCCCCCCCCCCCCCOc1ccc(CCC(=O)Nc2ccc(SC)c(C(=O)O)c2)cc1 [Compound 118] | 209 to 212 | – | 5.80
CCCCCCCCCCCCCCCCCCOc1ccc(CCC(=O)Nc2ccc(SC)c(C(=O)O)c2)cc1OC [Compound 119] | 174 to 176 | – | 6.54
CCCCCCCCCCCCCCCCCC(=O)Nc1ccc(CCC(=O)Nc2ccc(SC)c(C(=O)O)c2)cc1 [Compound 120] | 257 to 260 | – | 6.36
CCCCCCCCCCCCCCCCOc1ccc(CC(=O)Nc2ccc(SC)c(C(=O)O)c2)cc1 [Compound 127] | 200 to 205 | – | 5.94
CCCCCCCCCCCCCCCCCC(=O)Nc1ccc(CC(=O)Nc2ccc(SC)c(C(=O)O)c2)cc1 [Compound 130] | 214 to 217 | – | 6.64
CCCCCCCCCCCCCCCCCC(=O)Nc1cccc(CC(=O)Nc2ccc(SC)c(C(=O)O)c2)c1 [Compound 131] | 224 to 228 | – | 6.51
CCCCCCCCCCCCCCCCCC(=O)Nc1ccccc1CC(=O)Nc1ccc(SC)c(C(=O)O)c1 [Compound 132] | 247 to 250 | – | 5.78
CCCCCCCCCCCCCCCCCCOc1ccc(OCC(=O)Nc2ccc(SC)c(C(=O)O)c2)cc1 [Compound 133] | 165 to 169 | – | 6.80
CCCCCCCCCCCCCCCCOc1ccc(OCCCC(=O)Nc2ccc(SC)c(C(=O)O)c2)cc1 [Compound 134] | 197 to 202 | – | 6.92
CCCCCCCCCCCCCCOc1ccc(OCCCCCC(=O)Nc2ccc(SC)c(C(=O)O)c2)cc1 [Compound 135] | 199 to 202 | – | 6.35
CCCCCCCCCCCCOc1ccc(OCCCCCCCC(=O)Nc2ccc(SC)c(C(=O)O)c2)cc1 [Compound 136] | 193 to 196 | – | 6.40
CCCCCCCCCCOc1ccc(OCCCCCCCCCC(=O)Nc2ccc(SC)c(C(=O)O)c2)cc1 [Compound 137] | 185 to 188 | – | 6.34
CCCCCCCCOc1ccc(OCCCCCCCCCCCC(=O)Nc2ccc(SC)c(C(=O)O)c2)cc1 [Compound 138] | 180 to 185 | – | 6.37
CCCCCCCCCCCCCCCCCCOc1ccc(CC(=O)Nc2ccc(SCC)c(C(=O)O)c2)cc1 [Compound 143] | 149 to 153 | – | 6.12
CCCCCCCCCCCCCCCCCCOc1ccc(CCC(=O)Nc2cc(C(=O)O)ccc2SC)cc1 [Compound 145] | 216 to 219 | – | 5.89
CCCCCCCCCCCCCCCCCCOc1ccc(CCC(=O)Nc2cc(C(=O)O)ccc2SCC)cc1 [Compound 146] | 174 to 177 | – | 6.20
CCCCCCCCCCCCCCCCCCOc1ccc(CCC(=O)Nc2cc(C(=O)O)ccc2SCCC)cc1 [Compound 147] | 150 to 152 | – | 6.24
CCCCCCCCCCCCCCCCCCOc1ccc(CCC(=O)Nc2cc(C(=O)O)ccc2SCc2ccccc2)cc1 [Compound 148] | 178 to 181 | – | 6.03
CCCCCCCCCCCCCCCCCCOc1ccc(CCC(=O)N(CC)c2ccc(SC)c(C(=O)O)c2)cc1 [Compound 149] | 108 to 110 | – | 6.85
CCCCCCCCCCCCCCCCCCOc1ccc(CCC(=O)N(CC2CC2)c2ccc(SC)c(C(=O)O)c2)cc1 [Compound 150] | 126 to 128 | – | 6.23
CCCCCCCCCCCCCCCCCCOc1ccc(CCC(=O)N(Cc2ccccc2)c2ccc(SC)c(C(=O)O)c2)cc1 [Compound 151] | 127 to 129 | – | 6.10
CCCCCCCCCCCCCCCCCCOc1ccc(C=CC(=O)N(C)c2ccc(SC)c(C(=O)O)c2)cc1 [Compound 153] | 156 to 157 | – | 6.60
